Measurements from PMC8063737 (The Journal of Biological Chemistry, 2021).
“Also recorded” adds a separate entry of the source. Like-named read-outs stand apart in the source and are kept apart here.

How the values were obtained:
[1] = tested on: skeletal and cardiac actin; parameters: method as in PMID 32788211; details: cited from earlier work; for isoform-specific differences in actin polymerization: skeletal versus cardiac actin
[2] = biological target: T1, PFA.C.S1 complex (F-actin with cardiac S1) (Oryctolagus cuniculus, UniProt P68135); assay: Steady-state S1 binding to and ATP-induced dissociation from the PFA.compound complex; assay type: biochemical, bovine; details: 0.7:1 S1:actin, rigor; compound 100 μM except Flu and Dan 50 μM, Mit 10 μM
T1 construct: Rabbit skeletal F-actin was prepared as described previously from acetone powder; tissue Pelfreez Biologicals (bovine left ventricular muscle); host or cells: rabbit skeletal muscle (actin); bovine left ventricular muscle (myosin S1)
Procedure: We then added Mg.ATP and measured PFA fluorescence (Fig. 8B, peach bars).
Fluorescence spectra of 2 μM PFA in F-Mg buffer were acquired with a Cary spectrophotometer. The sample was placed in a cuvette in a temperature-controlled holder and excited with a Xenon flash lamp at 365 nm with 5 nm slit width. Emission fluorescence intensity was acquired and averaged for 30 s at 407 nm with a 10 nm slit width. […] Fluorescence intensity (F) was corrected for each compound's emission at 407 nm.
Fcalc was determined from normalized fluorescence intensity:(5) Fcalc=(FCompound+F0.7S1)

[3] = biological target: T2, pyrene-labeled F-actin (PFA) (Oryctolagus cuniculus, UniProt P68135); assay: Compound binding to pyrene-labeled F-actin, steady-state fluorescence dose response; parameters: species or system rabbit; details: for effect on PFA (pyrene) fluorescence, dose-response: 2.5–150 μM compound
T2 construct: Rabbit skeletal F-actin was prepared as described previously from acetone powder; from tissue; host or cells: rabbit skeletal muscle (acetone powder)

[4] = biological target: T3, rigor PFA.S1 complex (cardiac myosin S1) (Oryctolagus cuniculus, UniProt P68135); assay: Stopped-flow ATP-induced dissociation of actin-S1 complex (ATP binding and isomerization); assay type: biochemical, bovine; details: for decrease in rate constant k+2 for isomerization versus control: hyperbolic fits of kobs1 versus [MgATP]; for overall category of compound effect: severe if at least one parameter (K1 or k+2) was affected >3-fold; for effect on K1 (shown as 1/K1), category: versus control
T3 construct: Rabbit skeletal F-actin was prepared as described previously from acetone powder; tissue Pelfreez Biologicals (bovine left ventricular muscle); host or cells: rabbit skeletal muscle (actin); bovine left ventricular muscle (myosin S1)
Procedure: To determine the equilibrium constant K1 for the formation of the collision complex, A.M.T, the rigor complex of PFA and myosin-S1 complex was formed in one syringe and the Mg.ATP placed in another syringe. […] (Equation 10). The rate constant k+2 was determined from hyperbolic plots of kobs1 versus [MgATP] […] The association equilibrium constant K1 was determined from the ratio of K1k+2/k+2.
Experiments were performed at 25 °C with filtered and degassed solutions. The instrument dead time for single-mix experiments was 1.3 ms. Samples were excited at 365 nm, and pyrene emission fluorescence was acquired with a 2 mm path length and 400 nm long-pass filter. Data analysis was done using the program, ORIGIN (OriginLab Corp).
K1 was determined by mixing the rigor complex of PFA.S1 (A.M) (final concentration of 0.05 μM) with varying final concentrations of MgATP (12.5–1000 μM) in F-Mg buffer in the absence and presence of the compounds, whereby the PFA.compound complex was first made, then mixed with S1, and placed in one syringe, and MgATP solution was placed in the other syringe. The transient curves were fitted to rate constants, kobs, fast and kobs, slow, and with corresponding amplitudes A1 and A2.

PFA.C.S1 complex = biological target: T4, PFA.C.S1 complex (Oryctolagus cuniculus, UniProt P68135); assay: Chase experiment: dissociation of S1 from rigor actin-S1 complex by unlabeled F-actin; assay type: biochemical, bovine; details: 20-fold unlabeled F-actin chase, 0.25 μM PFA.S1, 20 min
T4 construct: Rabbit skeletal F-actin was prepared as described previously from acetone powder; tissue Pelfreez Biologicals (bovine left ventricular muscle); host or cells: rabbit skeletal muscle (actin); bovine left ventricular muscle (myosin S1)
Excerpt: The transient curve was best fitted to a double exponential equation to yield a fast and slow rate constant of 0.01 ± 5E-4 s^−1 and 0.003 ± 4E-4 s^−1, respectively.

[5] = clinical use, cited from earlier work; for liver toxicity: ref 26 for Dan
[6] = tested on: PFA.S1 (pyrene-labeled F-actin with cardiac myosin S1); assay: Steady-state PFA fluorescence with myosin-binding drugs (PFA, PFA.S1, plus MgATP); assay type: biochemical, bovine; details: 5 μM drug; for change in PFA fluorescence: 2 μM PFA, no S1; for PFA fluorescence restored by addition of MgATP: 2 μM PFA.S1, 1 mM MgATP, 95% without compound; for effect on S1-induced decrease in pyrene fluorescence: S1 equimolar to actin, no ATP
Procedure: (§1) Fluorescence spectra of 2 μM PFA in F-Mg buffer were acquired with a Cary spectrophotometer. The sample was placed in a cuvette in a temperature-controlled holder and excited with a Xenon flash lamp at 365 nm with 5 nm slit width. Emission fluorescence intensity was acquired and averaged for 30 s at 407 nm with a 10 nm slit width. A final concentration of 2 μM PFA in F-actin buffer was used. Fluorescence intensity (F) was corrected for each compound's emission at 407 nm.

[7] = tested on: equimolar PFA.S1 (2 μM) complex; assay: Effect of nucleotide analogs on PFA-S1 fluorescence; assay type: biochemical, bovine; details: 10 mM PPi
Procedure: The ten compounds were obtained from Target Molecule Corp and stored at –20 °C as 10 mM stock solutions in DMSO until use. OM and Mava were obtained from Selleck Chemicals and stored as 10 mM stock solutions at –20 °C until use. Sodium vanadate ([…]) and potassium pyrophosphate (PPi) were obtained from Sigma-Aldrich, and stock solutions of 50 mM and 1 M, respectively, were prepared as described previously ([36]). […] To study the effect of pyrophosphate, 10 mM PPi was added to an equimolar PFA.S1 (2 μM) complex. These ligand concentrations were saturating.
as §1

[8] = 2 μM PFA, no MgATP, fits to the Hill equation, read-out: apparent dissociation equilibrium constant, Kd, of compound binding to PFA
[9] = 2 μM PFA, 200-500 μM MgATP, read-out: Kd of compound binding to PFA in the presence of MgATP

SMILES | polymerization rate of skeletal and cardiac actin [1] | decrease in PFA fluorescence of PFA.compound.S1, experimental versus calculated (Fcalc) [2] | effect on PFA (pyrene) fluorescence, dose-response ([3]; 2 μM PFA) | overall category of compound effect [4] | increase in K1 versus control [4] [factor] | further results
COc1ccccc1OCCNCC(O)COc1cccc2[nH]c3ccccc3c12 (stereo not shown) [Car] | reduced the polymerization rate | greater decrease in PFA fluorescence | minimal effects | mild (mild effects to be <1.5-fold) | – | decrease in rate constant k+2 for isomerization versus control [4]: < 1.5 fold; effect on K1 (shown as 1/K1), category [4]: mild (mild effects to be <1.5-fold)
O=C1CN(/N=C/c2ccc(-c3ccc([N+](=O)[O-])cc3)o2)C(O)=N1 [Dan, Dantrolene] | did not have significant effects | smaller decrease in PFA fluorescence than expected | decreased PFA fluorescence with hyperbolic dependence | severe (severe effects to be >3-fold) | ≥ 2 | rate of dissociation of S1 from rigor actin-S1 complex versus control (PFA.C.S1 complex): No significant change; Kd [3, 8]: 17.5 ± 6 µM; liver toxicity [5]: causes hepatoxicity
OCCN1CCN(CCCN2c3ccccc3Sc3ccc(C(F)(F)F)cc32)CC1 [Flp] | reduced the polymerization rate | – | – | – | – | liver toxicity [5]: cause liver toxicity
CC(C)C(=O)Nc1ccc([N+](=O)[O-])c(C(F)(F)F)c1 [Flu] | – | smaller decrease in PFA fluorescence than expected | decreased PFA fluorescence with hyperbolic dependence | severe (severe effects to be >3-fold) | ≥ 2 | rate of dissociation of S1 from rigor actin-S1 complex versus control (PFA.C.S1 complex): No significant change; Kd [3]: 39.6 ± 22 µM; effect of MgATP on fluorescence of PFA–compound complexes ([3]; 200-500 μM MgATP): MgATP relieves the fluorescence inhibition
C=CCc1ccc(O)c(-c2ccc(O)c(CC=C)c2)c1 [Hon] | did not have significant effects | no effect | minimal effects | mild (mild effects to be <1.5-fold) | – | decrease in rate constant k+2 for isomerization versus control [4]: < 1.5 fold; effect on K1 (shown as 1/K1), category [4]: mild (mild effects to be <1.5-fold)
CC(C)n1c(=O)cc(N[C@@H](C)c2ccccc2)[nH]c1=O [Mava, mavacamten] | – | – | – | – | – | change in PFA fluorescence [6]: 1%; PFA fluorescence restored by addition of MgATP [6]: 97%; effect on S1-induced decrease in pyrene fluorescence [6]: no effect
OC(c1cc(C(F)(F)F)nc2c(C(F)(F)F)cccc12)C1CCCCN1 (stereo not shown) [Mef] | did not have significant effects | smaller decrease in PFA fluorescence than expected | decreased PFA fluorescence with hyperbolic dependence | severe (severe effects to be >3-fold) | ≥ 2 | Kd [3, 9]: 89 ± 28.4 µM; Kd [3, 8]: 20 ± 10 µM; effect of MgATP on fluorescence of PFA–compound complexes ([3]; 200-500 μM MgATP): increased PFA fluorescence in the presence of MgATP; also recorded: MgATP relieves the fluorescence inhibition
O=C1c2c(O)ccc(O)c2C(=O)c2c(NCCNCCO)ccc(NCCNCCO)c21 [Mit, mitoxantrone] | reduced the polymerization rate | smaller decrease in PFA fluorescence than expected | decreased PFA fluorescence with hyperbolic dependence | severe (severe effects to be >3-fold) | ≥ 2 | rate of dissociation of S1 from rigor actin-S1 complex versus control (PFA.C.S1 complex): No significant change; Kd [3, 9]: 24.7 ± 5.8 µM; Kd [3, 8]: 7.2 ± 1.2 µM; effect of MgATP on fluorescence of PFA–compound complexes ([3]; 200-500 μM MgATP): increased PFA fluorescence in the presence of MgATP; also recorded: MgATP relieves the fluorescence inhibition
COC(=O)N1CCN(Cc2cccc(NC(=O)Nc3ccc(C)nc3)c2F)CC1 [OM, omecamtiv mecarbil] | – | – | – | – | – | change in PFA fluorescence [6]: 4%; PFA fluorescence restored by addition of MgATP [6]: 65%; effect on S1-induced decrease in pyrene fluorescence [6]: no effect
c1ccc2c(c1)Nc1ccccc1S2 [Phn] | – | greater decrease in PFA fluorescence | minimal effects | severe (severe effects to be >3-fold) | ≥ 2 | isoform-specific differences in actin polymerization [1]: showed isoform-specific differences
CCCCCNC(=N)N/N=C/c1c[nH]c2ccc(OC)cc12 [Teg] | – | smaller decrease in PFA fluorescence than expected | minimal effects | severe (severe effects to be >3-fold) | ≥ 2 | isoform-specific differences in actin polymerization [1]: showed isoform-specific differences; heart failure ([5]; FDA caution or withdrawal): can contribute to heart failure
CSc1ccc2c(c1)N(CCC1CCCCN1C)c1ccccc1S2 (stereo not shown) [Thi] | reduced the polymerization rate | – | – | – | – | isoform-specific differences in actin polymerization [1]: showed isoform-specific differences; liver toxicity [5]: cause liver toxicity
O=P([O-])([O-])OP(=O)([O-])[O-].[K+].[K+].[K+].[K+] [potassium pyrophosphate (PPi), potassium pyrophosphate] | – | – | – | – | – | restoration of pyrene fluorescence of PFA-S1 [7]: almost completely restored
